Source: PubChem BioAssay AID1208 (EPA DSSTox, 2008)
Activity calls are given as the source filed them.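 How the source made its calls: active means at least one rat sex group has a carcinogenic potency value and tumor site recorded; inconclusive means only rat studies were judged inadequate by the national testing program; inactive means no potency or tumor site, with negative rat experiments.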

Test system: rat chronic carcinogenicity bioassay, TD50
Assay: DSSTox (CPDBAS) Carcinogenic Potency Database Summary Rat Bioassay Results
Settings: for Potency: stronger effect = lower value
Source text: The Carcinogenic Potency Database (CPDB) is a unique and widely used international resource of the results of over 6500 chronic, long-term animal cancer tests on over 1500 chemical substances. The CPDB provides easy access to the bioassay literature, with qualitative and quantitative analyses of both positive and negative experiments that have been published over the past 50 years in the general literature and by the National Cancer Institute/National Toxicology Program. The CPDB standardizes the diverse literature of cancer bioassays that vary widely in protocol, histopathological examination and nomenclature, and in the published author's choices of what information to provide in their papers. Results are reported in the CPDB for tests in rats, mice, hamsters, dogs, and nonhuman primates, and are based on the most positive result among all experiments for each sex-species. The DSSTox CPDBAS (all species) file incorporates data from the CPDB Summary Tables for the full list of over 1500 chemical substances tested in at least one species. Summary bioassay results for Rat (TD50, tumor sites, male, female, both sexes) are provided in the CPDB Summary Tables and the DSSTox CPDBAS file for over 1200 chemical substances.
TD50 is a standardized quantitative measure of carcinogenic potency (analogous to an LD50) and is reported in the CPDB Summary Table for each species. Activity Score for actives is computed by mapping of LOG10 (1/TD50_Rat_mmol) activity values spanning range [MIN, MAX] onto Integer 1-100 Activity Score range, where 100 is highest potency and 1 is lowest: Activity Score = 100 * INTEGER[(log10(1/Activity) - MIN)/(MAX - MIN)]. If activity is reported but no TD50_Rat_mmol value is computed, such as for a mixture, the Activity Score is assigned the activity value "50". […] Target sites are reported for each sex-species group with a positive result in the CPDB on the basis of a positive author's opinion for the particular site, using all results from both the general literature and NCI/NTP bioassays. If a chemical has two or more target sites listed, the results may be from different experiments, and a single site may be a target organ in more than one experiment, as well. Blank entry in TargetSites field indicates no results reported.

[1] = TargetSites_Rat_Female: no positive results
[2] = TD50_Rat_Note: no positive results, TargetSites_Rat_Female: no positive results
[3] = TD50_Rat_Note: no positive results
[4] = TD50_Rat_Note: TD50 is harmonic mean of more than one positive test, TargetSites_Rat_Female: liver
[5] = TD50_Rat_Note: TD50 is harmonic mean of more than one positive test, TargetSites_Rat_Female: large intestine
[6] = TD50_Rat_Note: TD50 is harmonic mean of more than one positive test, TargetSites_Rat_Female: mammary gland

CC(C)n1c(/C=C/[C@@H](O)C[C@@H](O)CC(=O)O)c(-c2ccc(F)cc2)c2ccccc21 showed a Potency [1] of 125 mg/kg/day.

Compound CCC[C@@H]1O[C@@H]2C[C@H]3[C@@H]4CCC5=CC(=O)C=C[C@]5(C)[C@H]4[C@@H](O)C[C@]3(C)[C@]2(C(=O)CO)O1 has a Potency of 0.291 mg/kg/day.

For O=C1OC(=O)c2ccccc21, the outcome [2] was “inactive; no positive results”.

In the case of NC(=O)CI, the outcome [3] is reported as “inactive; no positive results”.

For O=NN(CC(=O)O)CC(=O)O, the outcome [2] was “inactive; no positive results”.

With NNc1nc(-c2ccccc2)cs1 the outcome [2] was “inactive”.

Cc1c(N)nc(C)c2c1[nH]c1ccccc12 gave a Potency [4] of 0.575 mg/kg/day.

CC(O)CCl (stereo not given) was tested, and the outcome [2] was “inactive; no positive results”.

For Cc1cccn2c1nc1ccc(N)nc12, the Potency (TD50_Rat_Note: TD50 is harmonic mean of more than one positive test, TargetSites_Rat_Female: clitoral gland, ear Zymbals gland, large intestine, liver, nervous system, small intestine) was 4.69 mg/kg/day.

With BrC(Br)Br the Potency [5] was 648 mg/kg/day.

CCNC(=O)N(CCO)N=O showed a Potency [6] of 0.562 mg/kg/day.

C=C(C)CCl showed a Potency (TD50_Rat_Note: TD50 is harmonic mean of more than one positive test, TargetSites_Rat_Female: stomach) of 113 mg/kg/day.

CC1CC(=O)O1 (stereo not given) gave a Potency (TargetSites_Rat_Female: stomach) of 13.8 mg/kg/day.

For S=C(SN1CCOCC1)N1CCOCC1, the Potency (TD50_Rat_Note: TD50 is harmonic mean of more than one positive test, TargetSites_Rat_Female: kidney, urinary bladder) was 90.8 mg/kg/day.

For CNC(=S)N(C)C, the Potency (TargetSites_Rat_Female: thyroid gland) was 25.8 mg/kg/day.

For N=c1ccn2c(n1)O[C@H]1[C@H](O)[C@@H](CO)O[C@H]12, the outcome [2] was “inactive; no positive results”.

C=CCc1ccc(OC)c(OC)c1 showed a Potency (TD50_Rat_Note: TD50 is harmonic mean of more than one positive test, TargetSites_Rat_Female: liver, stomach) of 19.7 mg/kg/day.

C=Cc1cccc[n+]1[O-] was tested, and the outcome [2] was “inactive”.

With CN=C(NC#N)NCCSCc1nc[nH]c1C the outcome [2] was “inactive; no positive results”.

With C=COC(C)=O the Potency (TD50_Rat_Note: TD50 is harmonic mean of more than one positive test, greater than ten-fold variation among TD50 values for positive res, TargetSites_Rat_Female: liver, nasal cavity, thyroid gland, uterus) was 341 mg/kg/day.

In the case of O=C1CCCO1, the outcome [2] is reported as “inactive; no positive results”.

With NC1CCCCC1 the outcome [2] was “inactive; no positive results”.

Compound N[C@@H](Cc1ccc(N(CCCl)CCCl)cc1)C(=O)O has a Potency (TD50_Rat_Note: positive test results only by intraperitoneal or intravenous injection, TD50 is harmonic mean of more than one positive, TargetSites_Rat_Female: peritoneal cavity) of 0.0938 mg/kg/day.

With CN=C(N)N the outcome [3] was “inactive; no positive results”.

In the case of Nc1ccc(Oc2ccc(Cl)cc2)cc1, the Potency is reported as 37.6 mg/kg/day.

For Cc1cccc(C)c1NC(=O)CN1CCCC1=O, the outcome [2] was “inactive; no positive results”.

Work on CCc1ccccc1 yielded a Potency (TD50_Rat_Note: TD50 is harmonic mean of more than one positive test, greater than ten-fold variation among TD50 values for positive res, TargetSites_Rat_Female: Maltoni head cancers, kidney) of 72.6 mg/kg/day.

c1ccc(NNc2ccccc2)cc1 showed a Potency (TD50_Rat_Note: TD50 is harmonic mean of more than one positive test, TargetSites_Rat_Female: liver, mammary gland) of 5.59 mg/kg/day.

For C1C2OC2C2C1C1CC2C2OC12 (stereo not given), the outcome [3] was “inactive; no positive results”.

CCCCCN(N=O)C(=O)OCC showed a Potency (TargetSites_Rat_Female: esophagus, oral cavity) of 1.01 mg/kg/day.

Compound CCNC(=O)N(CCN(C)C)N=O has a Potency (TargetSites_Rat_Female: mammary gland, uterus) of 0.704 mg/kg/day.

With CN(Cc1cnc2nc(N)nc(N)c2n1)c1ccc(C(=O)N[C@@H](CCC(=O)O)C(=O)O)cc1 the outcome [2] was “inactive; no positive results”.

With CC(=O)Nc1nc(-c2ccc([N+](=O)[O-])o2)cs1 the Potency [6] was 17.8 mg/kg/day.

Work on O=NN(CCO)C(=O)NCCCl yielded a Potency (TD50_Rat_Note: TD50 is harmonic mean of more than one positive test, TargetSites_Rat_Female: kidney, liver) of 0.356 mg/kg/day.

Nc1ccc(Cl)c(N)c1 showed a Potency [1] of 315 mg/kg/day.

With Cc1ccc(N)cc1Cl the outcome [2] was “inactive; no positive results”.

C=C(C)[C@H]1CC=C(C)CC1 was tested, and the Potency [1] was 204 mg/kg/day.

Cc1ccc([N+](=O)[O-])cc1N was tested, and the outcome [2] was “inactive; no positive results”.

Compound Nc1ccc2c(c1)C(=O)c1ccccc1C2=O has a Potency [1] of 101 mg/kg/day.

Work on C/C=C1/C[C@@H](C)[C@](O)(CO)C(=O)OCC2=CC[N+]3([O-])CC[C@@H](OC1=O)[C@@H]23 (stereo not given in full) yielded a Potency [4] of 0.716 mg/kg/day.

CC(C)(Oc1ccc(C2CCCc3ccccc32)cc1)C(=O)O (stereo not given) gave a Potency (TD50_Rat_Note: TD50 is harmonic mean of more than one positive test, greater than ten-fold variation among TD50 values for positive res, TargetSites_Rat_Female: liver) of 11 mg/kg/day.

In the case of CC1(C)C(=O)NC(=O)NC1=O, the outcome [3] is reported as “inactive; no positive results”.

Compound O=C(Nc1ccc2c(c1)Cc1ccccc1-2)C(F)(F)F has a Potency (TargetSites_Rat_Female: ear Zymbals gland, liver, mammary gland) of 1.62 mg/kg/day.

In the case of C=CCCl, the outcome (TD50_Rat_Note: only experiment is NCI/NTP bioassay inadequate, TargetSites_Rat_Female: NTP bioassay inadequate) is reported as “ntp bioassay inadequate”.

Work on O=Cc1ccco1 yielded a Potency [1] of 683 mg/kg/day.

With O=NN1CCC(=O)NC1=O the Potency [4] was 0.0983 mg/kg/day.

For CN(C)c1ccc(N=Nc2ccccc2)cc1, the Potency (TargetSites_Rat_Female: liver) was 3.31 mg/kg/day.

With CCCN(CCC)c1ccc(N=Nc2cc[n+]([O-])cc2)cc1 the outcome [3] was “inactive; no positive results”.

Compound CCCCCCCCCCCCCCN(C)N=O has a Potency (TD50_Rat_Note: harmonic mean of TD50 includes a value for upper 99% confidence limit from study with 100% tumor incidence but no lifeta) of 1.65 mg/kg/day.

Work on COc1cc2c(c3oc(=O)c4c(c13)CC[C@H]4O)[C@@H]1C=CO[C@H]1O2 yielded a Potency of 0.00247 mg/kg/day.

For c1ccc(Nc2ccc3ccccc3c2)cc1, the outcome [2] was “inactive; no positive results”.

For CCBr, the Potency (TD50_Rat_Note: no positive results are statistically significant, TargetSites_Rat_Female: no positive results) was 149 mg/kg/day.

In the case of CC#N, the outcome [2] is reported as “inactive; no positive results”.

NCCNc1cccc2ccccc12 was tested, and the outcome [2] was “inactive; no positive results”.

O=NN1CCCCCCCCCCCC1 gave a Potency [4] of 10.9 mg/kg/day.

With Oc1ccc(Cl)cc1Cc1ccccc1 the outcome [2] was “inactive; no positive results”.

In the case of O=NN1CCOC(O)C1 (stereo not given), the outcome [2] is reported as “inactive”.

With COc1cc2c(c3oc4cccc(O)c4c(=O)c13)C1C=COC1O2 (stereo not given) the Potency (TD50_Rat_Note: TD50 is harmonic mean of more than one positive test, greater than ten-fold variation among TD50 values for positive res, TargetSites_Rat_BothSexes: liver) was 0.152 mg/kg/day.

For CC(CN1c2ccccc2Sc2ccccc21)N(C)C (stereo not given), the outcome [2] was “inactive; no positive results”.

In the case of NC(N)=O, the outcome [2] is reported as “inactive; no positive results”.

CN(N=O)c1ccc(/C=C/c2ccnc3ccccc23)cc1 showed a Potency [4] of 0.699 mg/kg/day.

For CN(C)[C@@H]1C(=O)C(C(N)=O)=C(O)[C@@]2(O)C(=O)C3=C(O)c4c(O)cccc4[C@@](C)(O)[C@H]3C[C@@H]12, the outcome [2] was “inactive; no positive results”.

In the case of S=[Se], the Potency [4] is reported as 8.01 mg/kg/day.

Nc1cc(S(=O)(=O)O)cc2cc(S(=O)(=O)O)c(N=Nc3ccc(-c4ccc(N=Nc5c(S(=O)(=O)O)cc6cc(S(=O)(=O)O)cc(N)c6c5O)cc4)cc3)c(O)c12 showed a Potency [4] of 1.73 mg/kg/day.

Cc1ccccc1N showed a Potency (TD50_Rat_Note: TD50 is harmonic mean of more than one positive test, TargetSites_Rat_Female: bone, mammary gland, urinary bladder, vascular system) of 43.6 mg/kg/day.

C[C@H]1CCCC(=O)CCC/C=C/c2cc(O)cc(O)c2C(=O)O1 was tested, and the outcome [2] was “inactive; no positive results”.

In the case of N/C(=N\O)c1ccc([N+](=O)[O-])o1, the outcome [2] is reported as “inactive”.

In the case of FC(Cl)(Cl)Cl, the outcome [2] is reported as “inactive; no positive results”.

For C[C@@H]1CCC[C@H](C)N1CCCC(O)(c1ccccc1)c1ccccn1 (stereo not given in full), the outcome [2] was “inactive; no positive results”.

COC1[C@@H](O[C@@H]2O[C@H](C)[C@@H](O[C@H]3C[C@@](C)(O)[C@H](OC(=O)CC(C)C)[C@H](C)O3)[C@H](N(C)C)[C@H]2O)[C@@H](CC=O)C[C@@H](C)[C@@H](O)/C=C/C=C/C[C@@H](C)OC(=O)C[C@H]1OC(C)=O (stereo not given in full) was tested, and the outcome [2] was “inactive; no positive results”.

For [Cd+2].[Cl-].[Cl-], the Potency (TD50_Rat_Note: TD50 is harmonic mean of more than one positive test, greater than ten-fold variation among TD50 values for positive res, TargetSites_Rat_Female: lung) was 0.0136 mg/kg/day.

For COP(=S)(OC)SCn1nnc2ccccc2c1=O, the outcome [2] was “inactive; no positive results”.

In the case of O=[O+][O-], the outcome [2] is reported as “inactive; no positive results”.

Work on C[C@]12C=CC(=O)C=C1CC[C@@H]1[C@@H]2[C@@H](O)C[C@@]2(C)[C@H]1CC[C@]2(O)C(=O)COC(=O)CCCc1ccc(N(CCCl)CCCl)cc1 yielded a Potency (TargetSites_Rat_Female: ear Zymbals gland) of 19.2 mg/kg/day.

With CC(C)=CCC/C(C)=C/C=O the outcome [2] was “inactive; no positive results”.

For O=c1c(O)c(-c2ccc(O)cc2)oc2cc(O)cc(O)c12, the outcome [2] was “inactive; no positive results”.

Cc1ccc(N)c(C)c1 was tested, and the outcome [3] was “inactive; no positive results”.

Compound Nc1ccc(N=Nc2ccccc2)c(N)n1 has a Potency [5] of 303 mg/kg/day.

With CCCCC1C(=O)N(c2ccccc2)N(c2ccccc2)C1=O the Potency (TargetSites_Rat_Female: kidney) was 1160 mg/kg/day.

With CC[C@H](OC(C)=O)C(C[C@H](C)N(C)C)(c1ccccc1)c1ccccc1 the Potency [4] was 68 mg/kg/day.
